Results taken from patent publication US9790235B2, “MK2 inhibitors and uses thereof” (Celgene CAR LLC, priority 2014, dated 2017).
Read-outs that look alike come from different tables or passages of the source.

Tests used:
[1] = target: p38α activated, mitogen-activated protein kinase-activated protein kinase 2 (MAPKAP-K2 or MK2) enzyme (Homo sapiens (Human), UniProt P49137); test: MK2 Omnia continuous-read kinase assay for compound potency; format: biochemical; conditions: [MK-2]=0.4 nM, [ATP]=10 μM, [ST3-Sox]=10 μM; read-out: MK2 IC50
Excerpt: Mitogen-Activated Protein Kinase-Activated Protein Kinase 2 Omnia® Assay for Compound Potency Assessment:
The protocol below describes a continuous-read kinase assay optimized to measure potency of compounds against p38α activated, mitogen-activated protein kinase-activated protein kinase 2 (MAPKAP-K2 or MK2) enzyme. Further details of this assay are described by Life Technologies, Carlsbad, Calif. on their website at the following URL: http://tools.lifetechnologies.com/content/sfs/manuals/omnia_kinase_assay_man.pdf.
[Reagent] used: • [MK-2]=0.4 nM, • [ATP]=10 μM and • [ST3-Sox]=10 μM (ATP^appKM=10 μM)
Kinase reactions were started with the addition of 45 μL of the ATP-peptide substrate S/T3-Sox mix and monitored every 71 seconds for 120 minutes at λex360/λem485 in a Synergy H4 plate reader from BioTek (Winooski, Vt.) at room temperature.
Background signals from the no enzyme control wells were subtracted from all progress curves. The initial linear portions of the net progress curves were fit according to a linear equation to yield the slope and percentage of inhibition (% inhibition) at each compound concentration. The net progress curves obtained during the first two hours of reactions were also fit according to an ascending single-exponential equation (Eq. 1) to yield kobs values at each compound concentration. Plots of % Inhibition versus inhibitor concentrations were fit according to a dose-response equation (Eq. 2) to generate IC50 and Hill slope values while plots of kobs versus inhibitor concentration were fit according to Equation 3 (Eq. 3) to generate apparent kinact/KI values using the GraphPad PRISM software (Version 6.00; GraphPad San Diego, Calif.).
[formula] where F is the fluorescence intensity from the plate reader, V0 is a constant reflecting the relationship between the instrument readout and product concentration, t is time, e is Euler's number, and kobs is the observed inactivation rate constant.
[formula] where % Inhibition is percentage of inhibition, IC50 is half maximal inhibitory concentration, [I] is the inhibitor concentration, and n is the Hill slope.

MK2 [2] = target: T1, MK2 (Homo sapiens (Human), UniProt P49137)
MK2 [3] = target: T1, MK2; test: MK2 cellular assay, total and phospho-Hsp27 (Serine 78) by MSD ELISA (Thp1); format: cell-based; conditions: Thp-1 cells, 1 hour compound, 50 ng/mL LPS 45 minutes, p-HSP27 (Ser78)/total HSP27; read-out: pHSP27 signaling EC50
Description: MK2 Cellular Assay—Detection of Total and Phospho-Hsp27 (Serine 78) by MSD ELISA (Thp1)
Compounds of the invention were assayed in Thp-1 human acute monocytic leukemia cells to measure inhibition of MK2 activity. Thp-1 cells were grown in culture medium containing RPMI/10% FBS (fetal bovine serum)/0.05 mM 2-mercaptoethanol. 72 hours prior to the assay, 8×10^4 cells per well were plated in a 96 well flat bottom plate along with 10 ng/mL phorbol 12-myristate 13-acetate (PMA). Cells were cultured in an incubator at 37° C. until needed for the assay. Cell plate media was replaced with culture media just prior to assay while compound dilutions were being made.
Stock solutions of test compound, 1 mM in DMSO, were prepared. 0.9 μl of test compound was added to 300 μl cell media for a starting concentration of 3000 nM. […] Cell plate media was discarded, followed by addition of 100 μl of the compound containing media. The resulting preparation was incubated at 37° C. for 1 hour.
Test compound-containing cell assay media was removed and the cells were washed once with cell assay media. Cell assay media containing 50 ng/mL LPS (lipopolysaccharide) was added to the each well and incubated for 45 minutes. Following LPS incubation, the cells were washed once with PBS (phosphate-buffered saline) and lysed with 60 μl Cell Extraction Buffer (Invitrogen #FNN0011) plus protease and phosphatase inhibitors. The plate was then stored at −80° C. until further analysis.
The MULTI-SPOT Phospho(Ser78)/Total HSP27 ELISA Assay kit was purchased from Meso Scale […] (MSD; catalog #K15128D). […] The pre-coated MSD plate was blocked with 150 μL/well of 3% BSA in MSD wash buffer. The preparation was placed on a shaker at room temperature for an hour. While the ELISA plate was blocked, the cell assay plate stored at −80° C. was placed on a shaker at 4° C. for 1 hour to thaw.
The blocked MSD plate was washed on a plate washer, tapping out the last bit of wash solution, followed by addition of 30 μl of the lysate from the cell assay plate. The preparation was covered and incubated for 1 hour at room temperature. The lysate was removed, the plate was washed 3 times on a plate washer and the last bit of wash buffer was tapped out and replaced with 25 μl/well detection antibody (anti-total HSP27 conjugated with an electrochemiluminescent compound, MSD SULFO-TAG label, supplied in kit) made in 1% BSA/MSD wash buffer. The plate was incubated for 1 hour at room temperature on a shaker, followed by 3 washes. The last bit of wash buffer was tapped out. 150 μl/well 1×MSD read buffer was added (4× read buffer supplied with kit) and the plate was analyzed on the MSD SECTOR® Imager for analysis. The SECTOR® Imager measures intensity of emitted light to provide a quantitative measure of phosphorylated HSP27 (Ser78) and total HSP27 present in the sample. The relative percent phosphoprotein in a sample is calculated by dividing the Phospho-HSP27 signal intensity over the total HSP27 signal intensity measured in each well.

[4] = percentage of modified protein after 60 minutes at room temperature, 10-fold excess of compound, MALDI (I-1 to I-50), magnetic bead MALDI (I-51 to I-129)
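For Mass Modification in this document: covalent binding read from centroid mass shift of compound-treated versus untreated intact MK2, shift divided by compound molecular weight, giving fraction of total protein bound.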

Sequence of p38α activated, mitogen-activated protein kinase-activated protein kinase 2 (MAPKAP-K2 or MK2) enzyme (P49137 whole entry): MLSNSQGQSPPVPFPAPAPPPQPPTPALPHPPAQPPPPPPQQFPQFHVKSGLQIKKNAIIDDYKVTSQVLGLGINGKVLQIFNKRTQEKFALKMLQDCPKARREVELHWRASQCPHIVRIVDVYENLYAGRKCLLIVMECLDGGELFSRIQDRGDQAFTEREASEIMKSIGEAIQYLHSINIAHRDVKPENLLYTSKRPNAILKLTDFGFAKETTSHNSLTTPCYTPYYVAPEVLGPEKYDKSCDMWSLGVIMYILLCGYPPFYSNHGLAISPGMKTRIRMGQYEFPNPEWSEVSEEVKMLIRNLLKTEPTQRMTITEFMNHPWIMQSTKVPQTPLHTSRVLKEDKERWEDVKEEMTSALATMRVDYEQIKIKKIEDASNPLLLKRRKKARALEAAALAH
T1 sequence (P49137 whole entry): as above

Row | Structure (SMILES) | IC50 [1] [nM] | Mass Modification (MK2 [2]) | EC50 (MK2 [3]) [nM] | Mass Modification (MK2 [2]; [4])
1 | CCOC(=O)c1cnc(SC)nc1Nc1ccc2c(ccc3sc4c(c32)NC[C@@H](C)NC4=O)n1 [I-12, (R)-ethyl 4-((10-methyl-8-oxo-9,10,11,12-tetrahydro-8H-[1,4]diazepino[5′,6′:4,5]thieno[3,2-f]quinolin-3-yl)amino)-2-(methylthio)pyrimidine-5-carboxylate] | 501 to 999 | G (key: E: mass modification of ≧70%; F: mass modification of 31-69%; G: mass modification ≦30%) | – | –
2 | C[C@@H]1CNc2c(sc3ccc4nc(Nc5nccc(Cl)n5)ccc4c23)C(=O)N1 [I-13, (R)-3-((4-chloropyrimidin-2-yl)amino)-10-methyl-9,10,11,12-tetrahydro-8H-[1,4]diazepino[5′,6′:4,5]thieno[3,2-f]quinolin-8-one] | – | G (key: E: mass modification of ≧70%; F: mass modification of 31-69%; G: mass modification ≦30%) | > 1000 | –
3 | C[C@@H]1CNc2c(sc3ccc4nc(Nc5nc(Cl)ncc5C(=O)NC5COC5)ccc4c23)C(=O)N1 [I-20, (R)-2-chloro-4-((10-methyl-8-oxo-9,10,11,12-tetrahydro-8H-[1,4]diazepino[5′,6′:4,5]thieno[3,2-f]quinolin-3-yl)amino)-N-(oxetan-3-yl)pyrimidine-5-carboxamide] | – | – | > 1000 | G (mass modification ≦30%)
4 | C[C@@H]1CNc2c(sc3ccc4nc(Nc5nc(Cl)ncc5C(=O)NC5CC5)ccc4c23)C(=O)N1 [I-21, (R)-2-chloro-N-cyclopropyl-4-((10-methyl-8-oxo-9,10,11,12-tetrahydro-8H-[1,4]diazepino[5′,6′:4,5]thieno[3,2-f]quinolin-3-yl)amino)pyrimidine-5-carboxamide] | – | – | > 1000 | G (mass modification ≦30%)
5 | CCOC(=O)c1cnc(Nc2ccc3c(ccc4sc5c(c43)NC[C@@H](C)NC5=O)n2)nc1Cl [I-23, (R)-ethyl 4-chloro-2-((10-methyl-8-oxo-9,10,11,12-tetrahydro-8H-[1, 4]diazepino[5′,6′:4,5]thieno[3,2-f]quinolin-3-yl)amino)pyrimidine-5-carboxylate] | < 100 | – | – | G (mass modification ≦30%)
6 | CN(C)C[C@@H]1CNc2c(sc3ccc4nc(Nc5cc(F)ncn5)ccc4c23)C(=O)N1 [I-31, (S)-10-((dimethylamino)methyl)-3-((6-fluoropyrimidin-4-yl)amino)-9,10,11,12-tetrahydro-8H-[1,4]diazepino[5′,6′:4,5]thieno[3,2-f]quinolin-8-one] | – | – | > 1000 | F (mass modification of 31-69%)
7 | C[C@@H]1CNc2c(sc3ccc4nc(Nc5cc(F)nc(OCCN6CCN(C)CC6)n5)ccc4c23)C(=O)N1 [I-48, (R)-3-((6-fluoro-2-(2-(4-methylpiperazin-1-yl)ethoxy)pyrimidin-4-yl)amino)-10-methyl-9,10,11,12-tetrahydro-8H-[1,4]diazepino[5′,6′:4,5]thieno[3,2-f]quinolin-8-one] | < 100 | – | > 1000 | –
8 | C[C@@H]1CNc2c(sc3ccc4nc(Nc5nc(F)cc(O[C@H]6CCOC6)n5)ccc4c23)C(=O)N1 [I-50, (R)-3-((4-fluoro-6-(((S)-tetrahydrofuran-3-yl)oxy)pyrimidin-2-yl)amino)-10-methyl-9,10,11,12-tetrahydro-8H-[1,4]diazepino[5′,6′:4,5]thieno[3,2-f]quinolin-8-one] | – | – | – | F (mass modification of 31-69%)
9 | COCCOc1cc(Cl)nc(Nc2ccc3c(ccc4sc5c(c43)NC[C@@H](C)NC5=O)n2)n1 [I-69, (R)-3-((4-chloro-6-(2-methoxyethoxy)pyrimidin-2-yl)amino)-10-methyl-9,10,11,12-tetrahydro-8H-[1,4]diazepino[5′,6′:4,5]thieno[3,2-f]quinolin-8-one] | < 100 | – | – | G (mass modification ≦30%)
10 | C[C@@H]1CNc2c(sc3ccc4nc(Oc5nc(Cl)nc(N6CCC(F)(F)C6)n5)ccc4c23)C(=O)N1 [I-77, (R)-3-((4-chloro-6-(3,3-difluoropyrrolidin-1-yl)-1,3,5-triazin-2-yl)oxy)-10-methyl-9,10,11,12-tetrahydro-8H-[1,4]diazepino[5′,6′:4,5]thieno[3,2-f]quinolin-8-one] | – | – | – | E (mass modification of ≧70%)
11 | C[C@@H]1CNc2c(sc3ccc4nc(Oc5nc(Cl)nc(N6CCCC(F)(F)C6)n5)ccc4c23)C(=O)N1 [I-78, (R)-3-((4-chloro-6-(3,3-difluoropiperidin-1-yl)-1,3,5-triazin-2-yl)oxy)-10-methyl-9,10,11,12-tetrahydro-8H-[1,4]diazepino[5′,6′:4,5]thieno[3,2-f]quinolin-8-one] | – | – | – | E (mass modification of ≧70%)
12 | CC(C)CN(Cc1cnc(Cl)nc1Oc1ccc2c(ccc3sc4c(c32)NC[C@@H](C)NC4=O)n1)CC(C)C [I-88, (R)-3-((2-chloro-5-((diisobutylamino)methyl)pyrimidin-4-yl)oxy)-10-methyl-9,10,11,12-tetrahydro-8H-[1,4]diazepino[5′,6′:4,5]thieno[3,2-f]quinolin-8-one] | > 1000 | – | – | F (mass modification of 31-69%)
13 | C[C@@H]1CNc2c(sc3ccc4nc(Oc5nc(Cl)ncc5CNC(C)(C)C)ccc4c23)C(=O)N1 [I-102, (R)-3-((5-((tert-butylamino)methyl)-2-chloropyrimidin-4-yl)oxy)-10-methyl-9,10,11,12-tetrahydro-8H-[1,4]diazepino[5′,6′:4,5]thieno[3,2-f]quinolin-8-one] | – | – | – | E (mass modification of ≧70%)
14 | C[C@@H]1CNc2c(sc3ccc4nc(Oc5nc(Cl)nc6c5CCCC6)ccc4c23)C(=O)N1 [I-109, (R)-3-((2-chloro-5,6,7,8-tetrahydroquinazolin-4-yl)oxy)-10-methyl-9,10,11,12-tetrahydro-8H-[1,4]diazepino[5′,6′:4,5]thieno[3,2-f]quinolin-8-one] | 101 to 500 | – | – | –
15 | C[C@@H]1CNc2c(sc3ccc4nc(Oc5cc(CNC(C)(C)C)nc(Cl)n5)ccc4c23)C(=O)N1 [I-117, (R)-3-((6-((tert-butylamino)methyl)-2-chloropyrimidin-4-yl)oxy)-10-methyl-9,10,11,12-tetrahydro-8H-[1,4]diazepino[5′,6′:4,5]thieno[3,2-f]quinolin-8-one] | – | – | < 100 | –
